# Results published in publication PMC9627161 (Frontiers in Pharmacology, 2022).
# Peptide text beside a SMILES is read from it.
# Tests used:
# Mpro = Mpro (Severe acute respiratory syndrome coronavirus 2, UniProt P0DTD1); assay: MST binding to Mpro protein; parameters: species or system SARS-CoV-2; conditions: mean ± SD (n = 3)
# SARS-CoV-2 pseudovirus = conditions: 1 h, 5 μM
# RBD = RBD (Severe acute respiratory syndrome coronavirus 2, UniProt P0DTC2); assay: MST binding to RBD protein; parameters: species or system SARS-CoV-2; conditions: mean ± SD (n = 3)
# Experimental: To detect the interaction between the peptides and RBD/Mpro, the MST experiments were performed using the Monolith NT.115 instrument. RBD and Mpro proteins were labeled with the Lys labeling kit, respectively. In the assay, the final concentration of the labeled protein was 50 nM, and the peptides were gradient-diluted in 1:1 dilution and starting from 12.5 μM. After brief incubation in MST buffer, the samples were loaded into MST-standard glass capillaries. All the measurements were performed in triplicate using automatically assigned 50% MST power and 20% LED power.
Compound,"Mpro, Kd (Mpro)","Mpro, Kd (Mpro; listed as peptide-5)",inhibition against pseudotyped SARS-CoV-2 virus (SARS-CoV-2 pseudovirus),"RBD, Kd (RBD)","RBD, Kd (RBD; listed as peptide-21)"
CC[C@H](C)[C@H](N)C(=O)N[C@@H](CCC(=O)O)C(=O)N[C@@H](CCC(=O)O)C(=O)N[C@@H](CCC(N)=O)C(=O)N[C@@H](C)C(=O)N[C@@H](CCCCN)C(=O)N[C@H](C(=O)N[C@@H](Cc1ccccc1)C(=O)N[C@@H](CC(C)C)C(=O)N[C@@H](CC(=O)O)C(=O)N[C@@H](CCCCN)C(=O)N[C@@H](Cc1ccccc1)C(=O)N[C@@H](CC(N)=O)C(=O)N[C@@H](Cc1c[nH]cn1)C(=O)N[C@@H](CCC(=O)O)C(=O)N[C@@H](CCCCN)C(=O)N[C@@H](CCC(=O)O)C(=O)N[C@@H](CC(=O)O)C(=O)N[C@@H](CC(C)C)C(=O)N[C@@H](CCC(=O)O)C(=O)N[C@@H](Cc1ccc(O)cc1)C(=O)N[C@@H](CCC(N)=O)C(=O)N[C@@H](CO)C(=O)N[C@@H](CO)C(=O)N[C@@H](CC(C)C)C(=O)N[C@@H](C)C(=O)N[C@@H](CO)C(=O)N[C@@H](Cc1c[nH]c2ccccc12)C(=O)N[C@@H](CC(N)=O)C(=O)N[C@@H](Cc1ccc(O)cc1)C(=O)N[C@@H](CC(N)=O)C(=O)N[C@H](C(=O)N[C@@H](CC(N)=O)C(=O)N[C@H](C(=O)N[C@H](C(=O)O)[C@@H](C)O)[C@@H](C)CC)[C@@H](C)O)[C@@H](C)O [Peptide-5] (H-IEEQAKTFLDKFNHEKEDLEYQSSLASWNYNTNIT-OH; N-terminus and C-terminus assumed),no binding,no binding affinity,about 40%,,
CC(=O)N[C@@H](CO)C(=O)N[C@H](C(=O)N[C@@H](CO)C(=O)N[C@@H](C)C(=O)N[C@H](C(=O)N[C@@H](CC(C)C)C(=O)N[C@@H](CCC(N)=O)C(=O)N[C@@H](CO)C(=O)NCC(=O)N[C@@H](Cc1ccccc1)C(=O)N[C@@H](CCCNC(=N)N)C(=O)N[C@@H](CCCCN)C(=O)N[C@@H](Cc1ccccc1)C(N)=O)C(C)C)[C@@H](C)O [Peptide-21],,,< 20%,no binding,no binding affinity
